*1 amine or outer side, *2 acyl side, *3 side chain or, on linkers, in order; H or OH if unused. Where a SMILES comes first, the peptide text is derived from it. Bridges are numbered along the chain shown (N, C = ends). [ ]: non-standard residue; d: D form. The star is where a group is joined. hPhe(3-Cl-4-CF3) = N[C@@H](CCc1ccc(C(F)(F)F)c(Cl)c1)C(=O)O; NPrPhe(4-CF3) = CCCN[C@@H](Cc1ccc(C(F)(F)F)cc1)C(=O)O; NEtAsp = CCN([C@@H](CC(=O)[*:3])C(=O)[*:2])[*:1]; NMeGly(cPent) = CN[C@H](C(=O)O)C1CCCC1; Ac4c(3,3-Me2) = CC1(C)CC(N)(C(=O)O)C1; NMeNva(3-Et) = CCC(CC)[C@H](NC)C(=O)O; NEtLeu = CCN[C@@H](CC(C)C)C(=O)O; NMeD = CN[C@@H](CC(=O)O)C(=O)O; NMeL = CN[C@@H](CC(C)C)C(=O)O; NMeNva = CCC[C@H](NC)C(=O)O; Morpholide = C1CN(*)CCO1; NMeA = CN[C@@H](C)C(=O)O; Ac5c = NC1(C(=O)O)CCCC1; Aze = O=C(O)[C@@H]1CCN1; Ac4c = NC1(C(=O)O)CCC1; NEtG = CCNCC(=O)O; Sar = CNCC(=O)O; Propyl = CCC*
Columns and labels:
[1] = target: GDP-bound NRAS wild-type protein (Homo sapiens, UniProt P01111); assay: Binding to NRAS by surface plasmon resonance (SPR), KD and KD ratio to KRAS; details: ratio of the KD value with respect to GDP-bound NRAS wild-type protein to the KD value with respect to KRAS
GDP-bound NRAS wild-type protein, sequence (P01111 whole entry): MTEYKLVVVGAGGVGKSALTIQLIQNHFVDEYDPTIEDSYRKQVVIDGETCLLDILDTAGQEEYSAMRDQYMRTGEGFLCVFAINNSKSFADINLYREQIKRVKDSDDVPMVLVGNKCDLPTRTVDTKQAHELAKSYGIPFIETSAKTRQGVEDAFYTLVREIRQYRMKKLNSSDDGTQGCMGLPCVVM
Method in brief: (§1)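 Running buffer contained 10 µM GDP and 10 mM MgCl2 to keep RAS in the GDP state, with 4% DMSO at pH 7.4. Compounds were flowed at 100 µL/min in 75 s steps of rising concentration over captured biotin-Avi RAS at 30°C. Sensorgrams were fitted 1:1 for KD.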

[2] = target: HRAS wild-type protein (Homo sapiens, UniProt P01112); assay: Binding to HRAS by surface plasmon resonance (SPR), KD and KD ratio to KRAS; details: ratio of the KD value with respect to HRAS wild-type protein to the KD value with respect to KRAS
HRAS wild-type protein, sequence (P01112 whole entry): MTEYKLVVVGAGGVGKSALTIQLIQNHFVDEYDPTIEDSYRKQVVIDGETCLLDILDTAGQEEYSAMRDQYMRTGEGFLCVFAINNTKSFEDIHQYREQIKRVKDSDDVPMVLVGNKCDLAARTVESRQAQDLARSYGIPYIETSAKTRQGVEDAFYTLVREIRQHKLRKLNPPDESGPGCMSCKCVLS
Method in brief: as §1

[3] = system: human lung cancer strain NCI-H441; type: cell-based
Method in brief: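 Step one: dispense the test compound in serial DMSO dilutions. Step three: add the reagent and measure […].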

IC50 [3]	SMILES	NRAS /KRAS [1]	HRAS /KRAS [2]
14.7 nM	CCC[C@H]1C(=O)N[C@@H]([C@@H](C)CC)C(=O)N(C)[C@@H](C)C(=O)N2CC[C@H]2C(=O)N(CCC)[C@@H](Cc2ccc(C(F)(F)F)cc2)C(=O)N(C)CC(=O)N[C@@H](CCc2ccc(C(F)(F)F)c(Cl)c2)C(=O)N2CCC[C@H]2C(=O)NC2(CCC2)C(=O)N(C)[C@@H](C(CC)CC)C(=O)N(C)[C@H](C(=O)N2CCOCC2)CC(=O)N1C [PP1959] ([NMeNva]I[NMeA][Aze][NPrPhe(4-CF3)][Sar][hPhe(3-Cl-4-CF3)]P[Ac4c][NMeNva(3-Et)][NMeD]-Morpholide; lactam N-11)	C (A compound having a KD ratio of 0.1 or more and less than 3 is denoted as C)	B (a compound having 3 or more and less than 10 is denoted as B)
6 nM	CCCN1C(=O)CN(C)C(=O)CN(C)C(=O)[C@H]([C@@H](C)CC)NC(=O)[C@H](CC(C)C)N(C)C(=O)C[C@@H](C(=O)N(C)C)N(C)C(=O)[C@H](C(CC)CC)N(C)C(=O)C2(CCC2)NC(=O)[C@@H]2CCCN2C(=O)[C@H](CCc2ccc(C(F)(F)F)c(Cl)c2)NC(=O)CN(C)C(=O)[C@@H]1Cc1ccc(C(F)(F)F)cc1 [PP1960] ([NMeL]I[Sar][Sar][NPrPhe(4-CF3)][Sar][hPhe(3-Cl-4-CF3)]P[Ac4c][NMeNva(3-Et)][NMeD]-NMe2; lactam N-11)	B (a compound having 3 or more and less than 10 is denoted as B)	C (A compound having a KD ratio of 0.1 or more and less than 3 is denoted as C)
9.1 nM	CCCN1C(=O)CN(C)C(=O)CN(C)C(=O)[C@H]([C@@H](C)OC)NC(=O)[C@H](CC(C)C)N(C)C(=O)C[C@@H](C(=O)N2CCOCC2)N(C)C(=O)[C@H](C2CCCC2)N(C)C(=O)C2(CC(C)(C)C2)NC(=O)[C@@H]2CCCN2C(=O)[C@H](CCc2ccc(C(F)(F)F)c(Cl)c2)NC(=O)CN(C)C(=O)[C@@H]1Cc1ccc(C(F)(F)F)cc1 [PP1963] ([NMeL]T(Me)[Sar][Sar][NPrPhe(4-CF3)][Sar][hPhe(3-Cl-4-CF3)]P[Ac4c(3,3-Me2)][NMeGly(cPent)][NMeD]-Morpholide; lactam N-11)	B (a compound having 3 or more and less than 10 is denoted as B)	C (A compound having a KD ratio of 0.1 or more and less than 3 is denoted as C)
10.3 nM	CCCN1C(=O)CN(C)C(=O)CN(C)C(=O)[C@H]([C@@H](C)OCC)NC(=O)[C@H](CC(C)C)N(C)C(=O)C[C@@H](C(=O)N2CCOCC2)N(C)C(=O)[C@H](C2CCCC2)N(C)C(=O)C2(CC(C)(C)C2)NC(=O)[C@@H]2CCCN2C(=O)[C@H](CCc2ccc(C(F)(F)F)c(Cl)c2)NC(=O)CN(C)C(=O)[C@@H]1Cc1ccc(C(F)(F)F)cc1 [PP1964] ([NMeL]T(Et)[Sar][Sar][NPrPhe(4-CF3)][Sar][hPhe(3-Cl-4-CF3)]P[Ac4c(3,3-Me2)][NMeGly(cPent)][NMeD]-Morpholide; lactam N-11)	B (a compound having 3 or more and less than 10 is denoted as B)	B (a compound having 3 or more and less than 10 is denoted as B)
10.9 nM	CCCN1C(=O)CN(C)C(=O)CNC(=O)[C@H]([C@@H](C)CC)NC(=O)[C@H](CC(C)C)N(CC)C(=O)C[C@@H](C(=O)N2CCOCC2)N(C)C(=O)[C@H](C2CCCC2)N(C)C(=O)C2(CCCC2)NC(=O)[C@@H]2CCCN2C(=O)[C@H](CCc2ccc(C(F)(F)F)c(Cl)c2)NC(=O)CN(C)C(=O)[C@@H]1Cc1ccc(C(F)(F)F)cc1 [PP1967] ([NEtLeu]IG[Sar][NPrPhe(4-CF3)][Sar][hPhe(3-Cl-4-CF3)]P[Ac5c][NMeGly(cPent)][NMeD]-Morpholide; lactam N-11)	B (a compound having 3 or more and less than 10 is denoted as B)	B (a compound having 3 or more and less than 10 is denoted as B)
16.8 nM	CCCN1C(=O)CN(C)C(=O)CNC(=O)[C@H]([C@@H](C)CC)NC(=O)[C@H](CC(C)C)N(C)C(=O)C[C@@H](C(=O)N2CCOCC2)N(CC)C(=O)[C@H](C2CCCC2)N(C)C(=O)C2(CCCC2)NC(=O)[C@@H]2CCCN2C(=O)[C@H](CCc2ccc(C(F)(F)F)c(Cl)c2)NC(=O)CN(C)C(=O)[C@@H]1Cc1ccc(C(F)(F)F)cc1 [PP1970] ([NMeL]IG[Sar][NPrPhe(4-CF3)][Sar][hPhe(3-Cl-4-CF3)]P[Ac5c][NMeGly(cPent)][NEtAsp]-Morpholide; lactam N-11)	B (a compound having 3 or more and less than 10 is denoted as B)	B (a compound having 3 or more and less than 10 is denoted as B)
38 nM	CCCN1C(=O)CN(C)C(=O)[C@H](C)NC(=O)[C@H]([C@@H](C)CC)NC(=O)[C@H](CC(C)C)N(C)C(=O)C[C@@H](C(=O)N2CCOCC2)N(C)C(=O)[C@H](C2CCCC2)N(C)C(=O)C2(CCCC2)NC(=O)[C@@H]2CCCN2C(=O)[C@H](CCc2ccc(C(F)(F)F)c(Cl)c2)NC(=O)CN(C)C(=O)[C@@H]1Cc1ccc(C(F)(F)F)cc1 [PP1971] ([NMeL]IA[Sar][NPrPhe(4-CF3)][Sar][hPhe(3-Cl-4-CF3)]P[Ac5c][NMeGly(cPent)][NMeD]-Morpholide; lactam N-11)	B (a compound having 3 or more and less than 10 is denoted as B)	B (a compound having 3 or more and less than 10 is denoted as B)

More lines, now with the values behind:

SMILES	IC50 [3]	NRAS /KRAS [1]	HRAS /KRAS [2]
CCCN1C(=O)CN(C)C(=O)CN(C)C(=O)[C@H]([C@@H](C)CC)NC(=O)[C@H](CC(C)C)N(C)C(=O)C[C@@H](C(=O)N2CCOCC2)N(C)C(=O)[C@H](C(CC)CC)N(C)C(=O)C2(CCC2)NC(=O)[C@@H]2CCCN2C(=O)[C@H](CCc2ccc(C(F)(F)F)c(Cl)c2)NC(=O)CN(C)C(=O)[C@@H]1Cc1ccc(C(F)(F)F)cc1 [PP1958] ([NMeL]I[Sar][Sar][NPrPhe(4-CF3)][Sar][hPhe(3-Cl-4-CF3)]P[Ac4c][NMeNva(3-Et)][NMeD]-Morpholide; lactam N-11)	57.8 nM	B (a compound having 3 or more and less than 10 is denoted as B)	B (a compound having 3 or more and less than 10 is denoted as B)
CCCN1C(=O)[C@@H]2CCN2C(=O)[C@H](C)N(C)C(=O)[C@H]([C@@H](C)CC)NC(=O)[C@H](CC(C)C)N(C)C(=O)C[C@@H](C(=O)N(C)C)N(C)C(=O)[C@H](C(CC)CC)N(C)C(=O)C2(CCC2)NC(=O)[C@@H]2CCCN2C(=O)[C@H](CCc2ccc(C(F)(F)F)c(Cl)c2)NC(=O)CN(C)C(=O)[C@@H]1Cc1ccc(C(F)(F)F)cc1 [PP1961] ([NMeL]I[NMeA][Aze][NPrPhe(4-CF3)][Sar][hPhe(3-Cl-4-CF3)]P[Ac4c][NMeNva(3-Et)][NMeD]-NMe2; lactam N-11)	8 nM	C (A compound having a KD ratio of 0.1 or more and less than 3 is denoted as C)	C (A compound having a KD ratio of 0.1 or more and less than 3 is denoted as C)
CCCO[C@H](C)[C@@H]1NC(=O)[C@H](CC(C)C)N(C)C(=O)C[C@@H](C(=O)N2CCOCC2)N(C)C(=O)[C@H](C2CCCC2)N(C)C(=O)C2(CC(C)(C)C2)NC(=O)[C@@H]2CCCN2C(=O)[C@H](CCc2ccc(C(F)(F)F)c(Cl)c2)NC(=O)CN(C)C(=O)[C@H](Cc2ccc(C(F)(F)F)cc2)N(CCC)C(=O)CN(C)C(=O)CN(C)C1=O [PP1965] ([NMeL]T(Propyl)[Sar][Sar][NPrPhe(4-CF3)][Sar][hPhe(3-Cl-4-CF3)]P[Ac4c(3,3-Me2)][NMeGly(cPent)][NMeD]-Morpholide; lactam N-11)	17.4 nM	B (a compound having 3 or more and less than 10 is denoted as B)	B (a compound having 3 or more and less than 10 is denoted as B)
CCCN1C(=O)CN(CC)C(=O)CNC(=O)[C@H]([C@@H](C)CC)NC(=O)[C@H](CC(C)C)N(C)C(=O)C[C@@H](C(=O)N2CCOCC2)N(C)C(=O)[C@H](C2CCCC2)N(C)C(=O)C2(CCCC2)NC(=O)[C@@H]2CCCN2C(=O)[C@H](CCc2ccc(C(F)(F)F)c(Cl)c2)NC(=O)CN(C)C(=O)[C@@H]1Cc1ccc(C(F)(F)F)cc1 [PP1968] ([NMeL]IG[NEtG][NPrPhe(4-CF3)][Sar][hPhe(3-Cl-4-CF3)]P[Ac5c][NMeGly(cPent)][NMeD]-Morpholide; lactam N-11)	13.5 nM	C (A compound having a KD ratio of 0.1 or more and less than 3 is denoted as C)	C (A compound having a KD ratio of 0.1 or more and less than 3 is denoted as C)
CCCN1C(=O)CN(C)C(=O)CNC(=O)[C@H]([C@@H](C)CC)NC(=O)[C@H](CC(C)C)N(C)C(=O)C[C@@H](C(=O)N2CCOCC2)N(C)C(=O)[C@H](C2CCCC2)N(C)C(=O)C2(CCCC2)NC(=O)[C@@H]2CCCN2C(=O)[C@H](CCc2ccc(C(F)(F)F)c(Cl)c2)NC(=O)CN(CC)C(=O)[C@@H]1Cc1ccc(C(F)(F)F)cc1 [PP1969] ([NMeL]IG[Sar][NPrPhe(4-CF3)][NEtG][hPhe(3-Cl-4-CF3)]P[Ac5c][NMeGly(cPent)][NMeD]-Morpholide; lactam N-11)	74 nM	B (a compound having 3 or more and less than 10 is denoted as B)	C (A compound having a KD ratio of 0.1 or more and less than 3 is denoted as C)
CC[C@H](C)[C@@H]1NC(=O)[C@H](CCOC)N(C)C(=O)C[C@@H](C(=O)N(C)CC)N(C)C(=O)[C@H](C2CCCC2)N(C)C(=O)C2(CC(C)(C)C2)NC(=O)[C@@H]2C[C@H](C)CN2C(=O)[C@H](CCc2cc(F)c(C(F)(F)F)c(F)c2)NC(=O)CN(C)C(=O)[C@H](Cc2ccc(C(F)(F)F)cc2)N2CC/C=C\C[C@@H](C2=O)N(C)C(=O)CN(C)C1=O [PP1972]	13.2 nM	A (a compound having 10 or more and less than 20 is denoted as A)	A (a compound having 10 or more and less than 20 is denoted as A)

From patent EP4603105A1, “PHARMACEUTICAL COMPOSITION CONTAINING CYCLIC COMPOUND HAVING SELECTIVE KRAS INHIBITORY EFFECT AGAINST HRAS AND NRAS” (CHUGAI SEIYAKU KABUSHIKI KAISHA, priority 2022, dated 2024)
